Experiments:
[1] = system: Pneumocystis carinii; experiment: Compound was tested for anti-P. carinii activity in vitro.; type: functional
[2] = Delta Tm (thermal denaturation) in sonicated poly(dA).poly(dT) homopolymer
[3] = system: Nucleic Acid; experiment: Delta Tm (thermal denaturation) in sonicated calf thymus DNA; type: nucleic-acid assay; set-up: unit not given here; details: Bos taurus

| ΔTm [2] | ΔTm [3] | Compound | Activity [1] [µM] |
| --- | --- | --- | --- |
| – | – | COc1cc(Cc2cnc(N)nc2N)cc(OC)c1OC.Cc1cc(NS(=O)(=O)c2ccc(N)cc2)no1 [CO-TRIMOXAZOLE] | 17 |
| 22.9 | 10 | N=C(N)c1ccc(OCCCCCOc2ccc(C(=N)N)cc2)cc1 [PENTAMIDINE] | 27 |
| 28.9 | 9.3 | C(=C/COc1ccc(C2=NCCN2)cc1)/COc1ccc(C2=NCCN2)cc1 | 25 |
| 20.4 | 8.3 | N=C(N)c1ccc(OCCCCOc2ccc(C(=N)N)cc2)cc1 | 39 |
| – | – | N=C(N)c1ccc(OC[C@@H](O)[C@@H](O)COc2ccc(C(=N)N)cc2)cc1 | 78 |
| 31.5 | 11 | N=C(N)c1ccc(OC/C=C\COc2ccc(C(=N)N)cc2)cc1 | 9 |
| 20.8 | 7.9 | C(=C\COc1ccc(C2=NCCN2)cc1)/COc1ccc(C2=NCCN2)cc1 | 42 |
| 23.3 | 7.7 | N=C(N)c1ccc(OC/C=C/COc2ccc(C(=N)N)cc2)cc1 | 19 |

Reference: ChEMBL document CHEMBL1129146, “Pentamidine congeners. 4. DNA binding affinity and anti-Pneumocystis carinii activity of butamidine analogues” (1996)
